Test results reported in patent US20080312301A1, “Substituted N-Benzo[D]Isoxazol-3-Yl-Amine Compounds as Inhibitors of Mglur5, Serotonin (5-Ht) and Noradrenaline Receptors, and Uses Thereof” (Gruenenthal GmbH, priority 2005, published 2008).

Target: T1, mGluR5 receptor (Sus scrofa, UniProt I3LUI7)
T1 construct: 450 μg of protein from brain homogenate are incubated with 5 nM^3[H]-MPEP; from tissue; host or cells: pig brain hemispheres without medulla, cerebellum and pons
Experiment: Affinity for the mGluR5 receptor: displacement of 3[H]-MPEP binding in pig brain homogenate
Conditions: 10 μM compound, 5 nM 3[H]-MPEP
Description: II. Method for Determining the Affinity for the mGluR5 Receptor
In each case 450 μg of protein from brain homogenate are incubated with 5 nM^3[H]-MPEP (Tocris, order No. R1212) (MPEP=2-methyl-6-[…]) and the compounds to be investigated (10 μM in the assay) in buffer (as above) in 250 μl incubation mixtures in 96-well microtiter plates at room temperature for 60 min.
The filter plates were then dried at 55° C. for 60 min.

T1 sequence (I3LUI7 19-1212): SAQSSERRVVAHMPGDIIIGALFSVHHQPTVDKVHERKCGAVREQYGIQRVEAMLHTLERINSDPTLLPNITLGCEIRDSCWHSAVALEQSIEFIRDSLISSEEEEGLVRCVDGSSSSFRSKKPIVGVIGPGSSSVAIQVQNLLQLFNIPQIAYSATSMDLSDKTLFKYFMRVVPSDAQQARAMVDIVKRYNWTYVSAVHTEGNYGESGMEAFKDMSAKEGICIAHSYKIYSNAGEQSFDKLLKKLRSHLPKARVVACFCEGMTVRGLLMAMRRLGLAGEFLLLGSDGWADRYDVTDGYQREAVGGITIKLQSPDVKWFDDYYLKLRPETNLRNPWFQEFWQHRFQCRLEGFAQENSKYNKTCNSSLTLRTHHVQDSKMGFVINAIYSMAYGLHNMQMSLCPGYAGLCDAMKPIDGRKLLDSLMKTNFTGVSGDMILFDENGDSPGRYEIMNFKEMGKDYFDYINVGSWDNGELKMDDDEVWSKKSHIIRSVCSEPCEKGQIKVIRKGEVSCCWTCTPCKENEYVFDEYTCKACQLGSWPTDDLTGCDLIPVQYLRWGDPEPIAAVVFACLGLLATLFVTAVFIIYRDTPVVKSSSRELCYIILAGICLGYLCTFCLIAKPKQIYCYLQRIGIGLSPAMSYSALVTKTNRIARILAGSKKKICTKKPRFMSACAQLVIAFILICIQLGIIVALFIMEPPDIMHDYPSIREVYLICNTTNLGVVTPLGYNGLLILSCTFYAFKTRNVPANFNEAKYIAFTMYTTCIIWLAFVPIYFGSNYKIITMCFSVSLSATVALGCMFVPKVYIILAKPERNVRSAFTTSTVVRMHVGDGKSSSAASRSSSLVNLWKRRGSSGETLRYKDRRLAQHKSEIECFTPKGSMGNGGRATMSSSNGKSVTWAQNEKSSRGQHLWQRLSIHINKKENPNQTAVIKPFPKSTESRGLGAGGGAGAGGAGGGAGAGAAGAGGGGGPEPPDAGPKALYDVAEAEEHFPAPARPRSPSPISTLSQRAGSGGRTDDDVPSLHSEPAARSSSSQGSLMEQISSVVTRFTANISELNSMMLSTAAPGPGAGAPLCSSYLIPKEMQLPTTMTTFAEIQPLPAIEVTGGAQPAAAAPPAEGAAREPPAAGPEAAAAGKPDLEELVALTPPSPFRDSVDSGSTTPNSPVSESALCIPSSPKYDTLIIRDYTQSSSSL

| Compound | mGluR5 receptor inhibition of the 3[H]-MPEP binding in % (10 μM) [%] | inhibition at 10 µM [%] |
| --- | --- | --- |
| O=C(Nc1noc2ccc(F)cc12)c1ccc2ccccc2c1 [Example 106, naphthalene-2-(5-fluorobenzo[d]isoxazol-3-yl)carboxamide] | 33.72 | – |
| Nc1c(F)c(F)c2c(NC(=O)c3c(F)cccc3F)noc2c1F [Example 176, N-(6-amino-4,5,7-trifluorobenzo[d]isoxazol-3-yl)-2,6-difluorobenzamide] | – | 36.1 |
| O=C(Nc1noc2ccc(F)cc12)c1ccccc1Br [Example 103, 2-bromo-N-(5-fluorobenzo[d]isoxazol-3-yl)benzamide] | – | 41.2 |
| O=C(Nc1noc2cccc(F)c12)C12CC3CC(CC(C3)C1)C2 [Example 150, adamantane-1-(4-fluorobenzo[d]isoxazol-3-yl)carboxamide] | 53.18 | – |
| O=C(Nc1noc2cccc(F)c12)c1ccccc1F [Example 149, 2-fluoro-N-(4-fluorobenzo[d]isoxazol-3-yl)benzamide] | – | 32.5 |
| CCC(C)C(=O)Nc1noc2cccc(Cl)c12 (centres unmarked) [Example 154, N-(4-chlorobenzo[d]isoxazol-3-yl)-2-methylbutyramide] | – | 30 |
| COc1ccc(C(=O)Nc2noc3ccc(Br)cc23)cc1OC [Example 137, N-(5-bromobenzo[d]isoxazol-3-yl)-3,4-dimethoxybenzamide] | – | 31.2 |
| Cc1ccc(COc2cccc3onc(NC(=O)c4cccc([N+](=O)[O-])c4)c23)cc1 [Example 167, N-[4-(4-methylbenzyloxy)benzo[d]isoxazol-3-yl]-3-nitrobenzamide] | – | 39.7 |
| O=C(Nc1noc2ccccc12)c1c(F)cccc1F [Example 87, N-benzo[d]isoxazol-3-yl-2,6-difluorobenzamide] | – | 37 |
| CCC(C)C(=O)Nc1noc2ccccc12 (centres unmarked) [Example 86, N-benzo[d]isoxazol-3-yl-2-methylbutyramide] | – | 39.6 |
| CC(C)(C)c1ccc(C(=O)Nc2noc3c(F)cccc23)cc1 [Example 94, 4-tert-butyl-N-(7-fluorobenzo[d]isoxazol-3-yl)benzamide] | – | 30.8 |
| O=C(Nc1noc2ccccc12)c1c(F)ccc(F)c1F [Example 89, N-benzo[d]isoxazol-3-yl-2,3,6-trifluorobenzamide] | – | 51.1 |
| CCC(C)C(=O)Nc1noc2cccc(OC)c12 (centres unmarked) [Example 160, N-(4-methoxybenzo[d]isoxazol-3-yl)-2-methylbutyramide] | – | 54 |
| Cc1ccc2onc(NC(=O)c3ccccc3F)c2c1 [Example 122, 2-fluoro-N-(5-methylbenzo[d]isoxazol-3-yl)benzamide] | – | 41 |
| Cc1ccc2onc(NC(=O)c3ccccc3C)c2c1 [Example 125, 2-methyl-N-(5-methylbenzo[d]isoxazol-3-yl)benzamide] | – | 40.6 |
| O=C(Nc1noc2cc(F)ccc12)C12CC3CC(CC(C3)C1)C2 [Example 102, adamantane-1-(6-fluorobenzo[d]isoxazol-3-yl)carboxamide] | 52.11 | – |
| CN(C)c1cccc2onc(NC(=O)c3cc(F)cc(C(F)(F)F)c3)c12 [Example 169, N-(4-dimethylaminobenzo[d]isoxazol-3-yl)-3-fluoro-5-trifluoromethylbenzamide] | – | 36.8 |
| O=C(Nc1noc2cccc(F)c12)c1ccc(Cl)cc1 [Example 148, 4-chloro-N-(4-fluorobenzo[d]isoxazol-3-yl)benzamide] | – | 79.5 |
| O=C(Nc1noc2ccccc12)c1ccc(C(F)(F)F)c(F)c1 [Example 88, N-benzo[d]isoxazol-3-yl-3-fluoro-4-trifluoromethylbenzamide] | – | 30 |
| Cc1ccc2onc(NC(=O)c3ccc(C(C)(C)C)cc3)c2c1 [Example 124, 4-tert-butyl-N-(5-methylbenzo[d]isoxazol-3-yl)benzamide] | – | 43.5 |
| COc1cccc2onc(NC(=O)c3ccccc3Cl)c12 [Example 157, 2-chloro-N-(4-methoxybenzo[d]isoxazol-3-yl)benzamide] | – | 32.4 |

The remaining lines, values ahead:

| mGluR5 receptor inhibition of the 3[H]-MPEP binding in % (10 μM) [%] | inhibition at 10 µM [%] | Compound |
| --- | --- | --- |
| 55.98 | – | O=C(Nc1noc2ccccc12)c1csc2ccccc12 [Example 92, benzo[b]thiophene-3-benzo[d]isoxazol-3-ylcarboxamide] |
| – | 31.6 | O=C(Nc1noc2cccc(Cl)c12)c1ccccc1 [Example 152, N-(4-chlorobenzo[d]isoxazol-3-yl)benzamide] |
| 36.88 | – | Cc1cc(C(=O)Nc2noc3ccc(F)cc23)c(C)o1 [Example 132, 2,5-dimethylfuran-3-(5-fluorobenzo[d]isoxazol-3-yl)carboxamide] |
| 43.55 | – | CN(C)c1cccc2onc(NC(=O)c3cc4ccccc4s3)c12 [Example 173, benzo[b]thiophene-2-(4-dimethylaminobenzo[d]isoxazol-3-yl)carboxamide] |
| – | 35.1 | CCCCC(CC)C(=O)Nc1noc2cc(Cl)ccc12 (centres unmarked) [Example 112, N-(6-chlorobenzo[d]isoxazol-3-yl)-2-ethylhexanamide] |
| – | 39.5 | Cc1ccc2onc(NC(=O)c3cccc(F)c3F)c2c1 [Example 126, 2,3-difluoro-N-(5-methylbenzo[d]isoxazol-3-yl)benzamide] |
| – | 48.8 | Cc1ccc2onc(NC(=O)c3ccc(C#N)cc3)c2c1 [Example 144, 4-cyano-N-(5-methylbenzo[d]isoxazol-3-yl)benzamide] |
| 31.64 | – | CC(C)(C)CC(=O)Nc1noc2ccc(F)cc12 [Example 130, N-(5-fluorobenzo[d]isoxazol-3-yl)-3,3-dimethyl butyramide] |
| – | 40.8 | O=C(Nc1noc2ccc(Br)cc12)c1c(F)cccc1F [Example 136, N-(5-bromobenzo[d]isoxazol-3-yl)-2,6-difluorobenzamide] |
| – | 43.2 | Cc1ccc2onc(NC(=O)c3ccc(F)cc3F)c2c1 [Example 127, 2,4-difluoro-N-(5-methylbenzo[d]isoxazol-3-yl)benzamide] |
| – | 34.6 | O=C(Nc1noc2ccc(Br)cc12)c1cccc(F)c1F [Example 133, N-(5-bromobenzo[d]isoxazol-3-yl)-2,3-difluorobenzamide] |
| – | 33.1 | Cc1ccc2onc(NC(=O)c3cccnc3Cl)c2c1 [Example 128, 2-chloro-N-(5-methylbenzo[d]isoxazol-3-yl)nicotinamide] |
| – | 37.5 | O=C(Nc1noc2cc(Br)ccc12)c1ccccc1Cl [Example 114, N-(6-bromobenzo[d]isoxazol-3-yl)-2-chlorobenzamide] |
| – | 34 | CCCC(C)C(=O)Nc1noc2ccc(C)cc12 (centres unmarked) [Example 146, N-(5-methylbenzo[d]isoxazol-3-yl)-2-methylpentanamide] |
| – | 32 | COc1ccccc1C(=O)Nc1noc2c(F)cccc12 [Example 98, N-(7-fluorobenzo[d]isoxazol-3-yl)-2-methoxybenzamide] |
| – | 49.2 | CCC(C)C(=O)Nc1noc2cc(Cl)ccc12 (centres unmarked) [Example 113, N-(6-chlorobenzo[d]isoxazol-3-yl)-2-methylbutyramide] |
| – | 30.5 | O=C(Nc1noc2c(F)cccc12)c1ccc(F)cc1 [Example 96, 4-fluoro-N-(7-fluorobenzo[d]isoxazol-3-yl)benzamide] |
